Data taken from patent publication US9868707B2, “Small molecule agonists of neurotensin receptor 1” (SANFORD-BURNHAM MEDICAL RESEARCH INSTITUTE, priority 2012, dated 2018).

Target: NTR1 (Homo sapiens, UniProt P30989)
Assay: NTR1 high-content imaging (HCS) dose response, NTR1-U2OS cells
Type: cell-based
Parameters: host or cells: U2OS osteosarcoma
Conditions: n = 4 unless otherwise noted; for EC50: Ave. ± S.E.M., read-out: HCS NTR1 Potency EC50; for Emax: read-out: HCS NTR1 Potency Emax
Description: The cell lines utilized in the high-content imaging assays, which include the NTR1-, NTR2-, and GPR35-U2OS osteosarcomas, were obtained from the laboratory of Dr. Lawrence Barak at the Duke University Medical Center. The media used in the culture of the cell lines, as well as the assays themselves, consisted of Minimum Essential Medium (15-010-CM) and L-glutamine (25-005-CL) from Cellgro/Mediatech (Manassas, Va.), fetal bovine serum (SH30396.03) from Hyclone (Logan, Utah), penicillin-streptomycin solution (PS-20) from Omega Scientific in Tarzana, Calif., G418 (ant-gn-1) from Invivogen (San Diego, Calif.), and zeocin (R250-01) from Invitrogen (Carlsbad, Calif.). Cell lines were cultured in T225 tissue culture flasks (431082) supplied by Corning (Corning, N.Y.). Additional reagents employed include Dulbecco's Phosphate-Buffered Saline (DPBS) (21-031CV) from Cellgro/Mediatech, Trypsin-EDTA 0.05% (25300) from Invitrogen, paraformaldehyde (30528954) from Acros Organics (Geel, Belgium), Hoechst 33342 (H3570) from Invitrogen. The high-content assays were run in 1536-well plates (29326) supplied by Aurora Biotechnology (Poway, Calif.) and utilized aluminum plate seals (T592100) from E&K Scientific (Santa Clara, Calif.).
The neurotensin 1 peptide (N6383) from Sigma-Aldrich (St. Louis, Mo.) was used as a positive control in the NTR1 primary HCS assay. For the NTR2 selectivity assay, the non-specific, small molecule 3-(4-fluorophenyl)-7,8-dimethoxy-5-(4-methylbenzyl)-5H-pyrazolo[4,3-c]quinolone which was synthesized internally was used as a positive control. The GPR35 selectivity screen utilized zaprinast (ALX430-020-M010) from Alexis Biochemicals (Farmingdale, N.Y.) as a control.
The high-content imaging based NTR1 primary screen in 1536-well format was utilized to assay the MLSMR library of chemical entities in the following manner. On day one, 4 uL of a cell suspension containing 350,000 NTR1-U2OS cells per mL is added to each well of a 1536-well assay plate. Cells are plated in MEM medium containing 2.5% Fetal Bovine Serum, 1% Penicillin/Streptomycin solution, 1% L-Glutamine, 400 ug/mL G418, and 200 ug/mL Zeocin. The assay plates are then incubated overnight at 37° C., under 5% CO2. Following the overnight incubation, a volume of 60 nL of the compounds at 2 mM in DMSO (final 20 μM, 1% DMSO) was transferred to columns 5-48 of the assay plates using a LabCyte Echo Liquid Handler. Next, 60 nL of DMSO were dispensed to columns 1-4, which served as the positive and neutral control wells. […] The assay plates were centrifuged on an Eppendorf 5810 centrifuge at 1000 rpm for 1 min to ensure even liquid levels in the wells of the assay plates. The assay plates were then returned to the incubator for 1 hour. Following the hour-long incubation at 37° C., the cells in each well were fixed with 4 uL of 6% paraformaldehyde added with a Multidrop Combi. The assay plates were centrifuged as before and incubated at room temperature for 1 hour. On the Kalypsys, plates were then aspirated down to 2.5 uL per well and washed twice with 11 uL per well of DPBS, followed by a final aspiration to 2.5 uL per well. On the Combi dispenser, 5 uL of 5 ug/mL Hoechst 33342 diluted in DPBS was added to each well of assay plates. The plates were again centrifuged as previously described, sealed, and incubated for at least 1 hour prior to being loaded on a PerkinElmer Opera QEHS.
Image acquisition was performed with a 45 plate capacity loader/stacker and the following settings: 40×0.6 NA air objective, acquisition camera set to 2-by-2 binning for an image size of 688 by 512 pixels, beta-arrestin-GFP acquired using 488 nm laser excitation and 540/75 nm emission filters, DAPI (nuclei) using 365 nm Xenon lamp excitation and 450/50 nm emission filters, 3 fields per well. Image analysis was performed using the Acapella Spot Detection Algorithm. For analysis settings and the metrics employed in the data analyses, please refer to supplemental information.

Chain of NTR1 (P30989 whole entry, species assumed): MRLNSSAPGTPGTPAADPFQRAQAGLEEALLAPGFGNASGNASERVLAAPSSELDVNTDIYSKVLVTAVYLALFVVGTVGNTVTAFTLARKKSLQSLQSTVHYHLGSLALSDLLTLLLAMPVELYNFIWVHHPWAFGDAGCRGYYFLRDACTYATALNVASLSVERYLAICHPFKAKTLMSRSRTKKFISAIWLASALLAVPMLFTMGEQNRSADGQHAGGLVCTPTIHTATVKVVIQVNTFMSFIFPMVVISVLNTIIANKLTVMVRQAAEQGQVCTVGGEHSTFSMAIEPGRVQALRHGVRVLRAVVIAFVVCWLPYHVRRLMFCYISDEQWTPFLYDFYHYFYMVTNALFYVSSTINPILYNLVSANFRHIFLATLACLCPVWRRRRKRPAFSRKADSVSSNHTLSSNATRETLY

Row | EC50 | Emax | Structure (SMILES)
1 | 30 µM | 112% | COc1ccc2c(N3CCN(c4ccccc4OC)CC3)nc(C3CCC3)nc2c1 [Compound 335, 2-cyclobutyl-7-methoxy-4-(4-(2-methoxyphenyl)piperazin-1-yl)quinazoline]
2 | 34.9 ± 4.4 µM | 100% | COc1ccccc1CN1CCN(c2nc(C3CC3)nc3cc(OC)c(OC)cc23)CC1 [Compound 343, 2-cyclopropyl-6,7-dimethoxy-4-(4-(2-methoxybenzyl)piperazin-1-yl)quinazoline]
3 | 22.8 ± 0.4 µM | 103% | COc1ccc(N2CCN(c3nc(C4CCC4)nc4cc(OC)c(OC)cc34)CC2)c(OC)c1 [Compound 330, 2-cyclobutyl-4-(4-(2,4-dimethoxyphenyl)piperazin-1-yl)-6,7-dimethoxyquinazoline]
